Measurements from paper PMC4777217, “Modelling the Tox21 10 K chemical profiles for in vivo toxicity prediction and mechanism characterization” (Nature Communications, 2016).

How the values were obtained:
ATAD5 = test: ATAD5-luc genotoxicity assay (agonist mode); assay type: cell-based; conditions: Homo sapiens, positive control titration on every plate, mean, n=408
Text: (§1) All cell-based assays were multiplexed with a cell viability assay in the same assay well. Although bla-based assays were multiplexed with a luminescence-based cell viability assay (CellTiter-Glo viability assay, Promega), luc-based assays were multiplexed with a fluorescence-based cell viability assay (Cell Titer-Fluor viability assay, Promega). […] A number of stress response pathway assays, including ATAD5-luc[33], a genotoxicity assay, p53-bla, antioxidant responsive element (ARE-bla)[34] and heat-shock factor response element (HSE-bla) assays, were screened in agonist mode.
(§2) In primary screening, all compounds were tested as three independent runs, with each of the three instances of a compound sample residing in a different location on a different compound plate across replicates. […] Analysis of compound concentration–response data was performed as previously described[5]. […] Compound reproducibility was assessed by calculating the reproducibility of the curve ranks of each compound generated from the triplicate runs[9].

[1] = test system: heat-shock factor response element; test: HSE-bla qHTS assay (agonist mode); assay type: cell-based, human; conditions: positive control titration on every plate, mean, n=408
Text: as §1, §2

Mitochondria toxicity = conditions: read-out: Control AC50, positive control titration on every plate, mean, n=408
[2] = molecular target: T1, peroxisome proliferator-activated receptor gamma (Homo sapiens, UniProt P37231); test: PPAR-gamma-bla antagonist mode qHTS assay; assay type: cell-based; conditions: positive control titration on every plate, mean, n=408
T1 sequence (P37231 238-505 limits assumed): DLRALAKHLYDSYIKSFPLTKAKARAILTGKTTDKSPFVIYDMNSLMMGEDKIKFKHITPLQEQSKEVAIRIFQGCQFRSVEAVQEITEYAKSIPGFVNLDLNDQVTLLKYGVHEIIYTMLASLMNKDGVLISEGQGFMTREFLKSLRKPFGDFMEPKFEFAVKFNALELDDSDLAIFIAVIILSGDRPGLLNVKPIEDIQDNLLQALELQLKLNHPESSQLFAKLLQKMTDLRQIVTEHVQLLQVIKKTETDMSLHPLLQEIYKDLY
Text: (§3) The assays were run in different modes (agonist versus antagonist) and/or formats (full length versus partial receptor) as detailed below, totaling 30 assays. […] All cell-based assays were multiplexed with a cell viability assay in the same assay well. Although bla-based assays were multiplexed with a luminescence-based cell viability assay (CellTiter-Glo viability assay, Promega), luc-based assays were multiplexed with a fluorescence-based cell viability assay (Cell Titer-Fluor viability assay, Promega). […]
(§4) In primary screening, all compounds were tested as three independent runs, with each of the three instances of a compound sample residing in a different location on a different compound plate across replicates. […] Briefly, raw plate reads for each titration point were first normalized relative to the positive control compound (agonist mode: 100%; antagonist mode: 0%) and dimethylsulphoxide (DMSO)-only wells (agonist mode: 0%; antagonist mode: -100%) as follows: % Activity=((Vcompound – VDMSO)/(Vpos – VDMSO)) × 100, where Vcompound denotes the compound well values, Vpos denotes the median value of the positive control wells and VDMSO denotes the median values of the DMSO-only wells, and then corrected by applying an in-house pattern correction algorithm using compound-free control plates (that is,, DMSO-only plates) at the beginning and end of the compound plate stack. […]

[3] = molecular target: T2, peroxisome proliferator-activated receptor delta (Homo sapiens, UniProt Q03181); test: PPAR-delta-bla agonist mode qHTS assay; assay type: cell-based; conditions: positive control titration on every plate, mean, n=408
T2 sequence (Q03181 211-441 limits assumed): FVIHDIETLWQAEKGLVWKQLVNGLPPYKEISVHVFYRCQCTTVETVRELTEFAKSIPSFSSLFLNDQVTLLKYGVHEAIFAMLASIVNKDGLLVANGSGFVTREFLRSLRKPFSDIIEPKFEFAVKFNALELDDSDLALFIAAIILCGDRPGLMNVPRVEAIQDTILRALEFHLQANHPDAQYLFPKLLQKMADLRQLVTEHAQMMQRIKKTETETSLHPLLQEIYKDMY
Text: as §3, §4

[4] = molecular target: T2, peroxisome proliferator-activated receptor delta; test: PPAR-delta-bla antagonist mode qHTS assay; assay type: cell-based; conditions: positive control titration on every plate, mean, n=408
Text: as §3, §4

p53 = test: P53-bla qHTS assay (agonist mode); assay type: cell-based; conditions: Homo sapiens, positive control titration on every plate, mean, n=408
Text: as §3, §4

[5] = molecular target: aryl hydrocarbon receptor (Homo sapiens, UniProt P35869); test: AhR-luc qHTS assay; assay type: cell-based; conditions: positive control titration on every plate, mean, n=408
Sequence of aryl hydrocarbon receptor (P35869 11-848): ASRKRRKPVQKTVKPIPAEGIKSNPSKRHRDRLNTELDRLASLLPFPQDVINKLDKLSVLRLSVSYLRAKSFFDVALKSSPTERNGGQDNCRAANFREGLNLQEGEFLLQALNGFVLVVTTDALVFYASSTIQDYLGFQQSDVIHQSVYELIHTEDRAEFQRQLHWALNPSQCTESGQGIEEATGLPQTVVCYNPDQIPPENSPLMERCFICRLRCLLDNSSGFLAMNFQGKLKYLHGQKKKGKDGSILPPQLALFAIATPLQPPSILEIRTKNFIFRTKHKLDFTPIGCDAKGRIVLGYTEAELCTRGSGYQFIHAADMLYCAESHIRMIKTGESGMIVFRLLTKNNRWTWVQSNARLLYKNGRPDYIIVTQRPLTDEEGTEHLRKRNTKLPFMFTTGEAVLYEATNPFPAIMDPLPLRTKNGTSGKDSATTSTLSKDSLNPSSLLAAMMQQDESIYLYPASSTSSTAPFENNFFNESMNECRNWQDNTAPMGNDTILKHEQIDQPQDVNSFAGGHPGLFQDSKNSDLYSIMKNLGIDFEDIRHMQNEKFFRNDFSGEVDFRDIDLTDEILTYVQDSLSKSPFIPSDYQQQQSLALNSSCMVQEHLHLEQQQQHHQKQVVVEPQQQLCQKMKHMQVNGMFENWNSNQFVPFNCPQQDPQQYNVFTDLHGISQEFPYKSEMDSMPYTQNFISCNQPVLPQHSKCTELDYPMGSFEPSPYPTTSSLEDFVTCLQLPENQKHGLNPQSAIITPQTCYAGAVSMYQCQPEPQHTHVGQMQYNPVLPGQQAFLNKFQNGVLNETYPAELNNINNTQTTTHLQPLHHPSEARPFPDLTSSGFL
Text: as §1, §2

DT40 Rad54/Ku70 cells = test: DT40 Rad54/Ku70 mutant cell viability assay; assay type: cell-based, chicken; conditions: positive control titration on every plate, mean, n=408
DT40 Rev3 cells = test: DT40 Rev3 cell viability assay; assay type: cell-based, chicken; conditions: positive control titration on every plate, mean, n=408
DT40 WT cells = test: DT40 WT cell viability assay; assay type: cell-based, chicken; conditions: positive control titration on every plate, mean, n=408
[6] = test system: antioxidant responsive element; test: ARE-bla qHTS assay (agonist mode); assay type: cell-based; conditions: Homo sapiens, positive control titration on every plate, mean, n=408
Text: as §3, §4

For `O=c1[nH]c(=O)n([C@@H]2O[C@H](CO)[C@@H](O)[C@H]2O)cc1F` [5-Fluorouridine], the AC50 (ATAD5) was 2120 nM.

Compound `C=CCNC1=C2C[C@@H](C)C[C@H](OC)[C@H](O)[C@@H](C)/C=C(\C)[C@H](OC(N)=O)[C@@H](OC)/C=C\C=C(/C)C(=O)NC(=CC1=O)C2=O` [17-AAG] has an AC50 [1] of 45.3 nM.

With `N#CC(C#N)=NNc1ccc(OC(F)(F)F)cc1` [FCCP] the AC50 (Mitochondria toxicity) was 96.2 nM.

With `O=C(Nc1ccccc1)c1cc([N+](=O)[O-])ccc1Cl` [GW9662] the AC50 [2] was 2.47 nM.

`CCCc1c(OCCCOc2ccc(OCC(=O)O)cc2)ccc(C(C)=O)c1O` [L-165,041] gave an AC50 [3] of 36.4 nM.

For `CC(C)c1ccc2c(c1)c(SC(C)(C)C)c(CC(C)(C)C(=O)O)n2Cc1ccc(Cl)cc1` [MK886], the AC50 [4] was 38500 nM.

For `CO[C@@]12[C@H](COC(N)=O)C3=C(C(=O)C(C)=C(N)C3=O)N1C[C@@H]1N[C@@H]12` [Mitomycin C], the AC50 (p53) was 1530 nM.

For `COc1ccc2[nH]c([S+]([O-])Cc3ncc(C)c(OC)c3C)nc2c1` (stereo not drawn) [Omeprazole], the AC50 [5] was 49500 nM.

Compound `CCCCCCCC[N+](CCCCCCCC)(CCCCCCCC)CCCCCCCC` [Tetra-octyl ammonium bromide] has an AC50 (DT40 Rad54/Ku70 cells) of 416 nM, an AC50 (DT40 Rev3 cells) of 440 nM and an AC50 (DT40 WT cells) of 594 nM.

Compound `O=c1cc(-c2ccccc2)oc2ccc3ccccc3c12` [β-Naphthoflavone] has an AC50 [6] of 1950 nM.
